We go through 1 compound from ChEMBL document CHEMBL1136619, “Synthesis of a new family of glycolipidic nitrones as potential antioxidant drugs for neurodegenerative disorders” (Bioorg Med Chem Lett, 2003).

In this experiment the test system is neuronal. Description: Cytotoxic activity in cultured neuronal cells determined using MTT viability assay. Format: functional, cell-based. On the technique in general: Tetrazolium dyes change colour on reduction, which living cells bring about.

`CCCCCCCCCCCCSCC(C)(C)/[N+]([O-])=C/c1ccc(CNC(=O)[C@H](O)[C@@H](O)[C@H](O[C@@H]2O[C@@H](CO)[C@H](O)[C@H](O)[C@@H]2O)[C@H](O)CO)cc1` yielded a Concentration of 400 µM.
